Assays:
hTGR5 = target: T1, hTGR5 (Homo sapiens, UniProt Q8TDU6); assay: TGR5/CRE Luciferase Assay (hTGR5); assay type: cell-based; conditions: for EC50: HEK 293 cells co-transfected with pCMV tag4b-TGR5h and pCRE TA-Luciferase, overnight incubation; for hTGR5 % trans: percentage of the 10 μM LCA value, HEK 293 cells transfected with hTGR5
T1 construct: expressed in transfected cells; host or cells: HEK293 cells, transiently co-transfected with the pCRE TA-Luciferase reporter
T1 sequence (Q8TDU6 1-330): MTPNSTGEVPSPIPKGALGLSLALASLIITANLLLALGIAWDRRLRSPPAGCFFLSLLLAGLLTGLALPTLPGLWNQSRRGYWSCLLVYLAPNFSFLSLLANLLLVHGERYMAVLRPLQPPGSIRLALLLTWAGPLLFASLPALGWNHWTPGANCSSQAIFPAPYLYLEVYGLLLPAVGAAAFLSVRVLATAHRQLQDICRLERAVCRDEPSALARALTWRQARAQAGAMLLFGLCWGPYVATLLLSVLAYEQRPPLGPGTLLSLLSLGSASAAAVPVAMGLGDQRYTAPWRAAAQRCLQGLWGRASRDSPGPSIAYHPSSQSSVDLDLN
Summary of the method: (§1)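 Transiently co-transfected HEK293 cells expressing human or mouse TGR5 plus a CRE-luciferase reporter were incubated overnight with rising compound concentrations in duplicate. Luminescence reported cAMP-driven expression; 10 μM lithocholic acid served as positive reference. Curves fitted to a 4-parameter logistic.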

mTGR5 = target: T2, mTGR5 (Mus musculus, UniProt Q80SS6); assay: TGR5/CRE Luciferase Assay (mTGR5); assay type: cell-based; conditions: for EC50: HEK 293 cells co-transfected with pCMV AC6-TGR5m and pCRE TA-Luciferase, overnight incubation; for mTGR5 % trans: percentage of the 10 μM LCA value, HEK 293 cells transfected with mTGR5
T2 construct: expressed in transfected cells; host or cells: HEK293 cells, transiently co-transfected with the pCRE TA-Luciferase reporter
T2 sequence (Q80SS6 1-329): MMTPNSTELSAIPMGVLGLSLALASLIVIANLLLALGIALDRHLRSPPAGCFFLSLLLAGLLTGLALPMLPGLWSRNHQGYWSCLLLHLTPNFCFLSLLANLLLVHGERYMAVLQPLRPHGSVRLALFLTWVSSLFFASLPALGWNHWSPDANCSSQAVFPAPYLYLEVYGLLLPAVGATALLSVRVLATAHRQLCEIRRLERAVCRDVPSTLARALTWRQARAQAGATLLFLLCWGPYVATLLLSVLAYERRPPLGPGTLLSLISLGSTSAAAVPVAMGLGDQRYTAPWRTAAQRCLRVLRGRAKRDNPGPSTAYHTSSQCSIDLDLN
Summary of the method: as §1

SMILES	EC50 (hTGR5)	hTGR5 % trans (hTGR5)	EC50 (mTGR5)	mTGR5 % trans (mTGR5)
COCCN1C(=O)CC(c2ccc(Cl)cc2)C(C(=O)OCc2ccc(Cl)cc2)=C1C (stereo not shown) [Example 89, (4-chlorophenyl)methyl 4-(4-chlorophenyl)-1-(2-methoxyethyl)-6-methyl-2-oxo-3,4-dihydropyridine-5-carboxylate]	400 nM	65%	300 nM	84%
CC1=C(C(=O)OCc2ccccc2)C(c2ccc(Cl)cc2)CC(=O)N1C (stereo not shown) [Compound 17, 4-(4-Chloro-phenyl)-1,2-dimethyl-6-oxo-1,4,5,6-tetrahydro-pyridine-3-carboxylic acid benzyl ester]	600 nM		1400 nM	
COCCN1C(=O)CC(c2ccc(Cl)cc2)C(C(=O)OCc2ccc(F)cc2)=C1C (stereo not shown) [Example 86, (4-fluorophenyl)methyl 4-(4-chlorophenyl)-1-(2-methoxyethyl)-6-methyl-2-oxo-3,4-dihydropyridine-5-carboxylate]	400 nM	71%	400 nM	82%
CC1=C(C(=O)OCc2ccccc2)C(c2ccc(Cl)cc2)CC(=O)N1CC1CN(C)C1 (stereo not shown) [Compound 47, Benzyl 4-(4-chlorophenyl)-6-methyl-1-[(1-methylazetidin-3-yl)methyl]-2-oxo-3,4-dihydropyridine-5-carboxylate]	6600 nM	22%		0%
CC1=C(C(=O)OCc2ccccc2)C(c2ccccc2C(F)(F)F)CC(=O)N1 (stereo not shown) [Compound 7, 2-Methyl-6-oxo-4-(2-trifluoromethyl-phenyl)-1,4,5,6-tetrahydro-pyridine-3-carboxylic acid benzyl ester]	5000 nM	22%		14%
CN1C=C(C(=O)N(C)Cc2ccccc2)C(c2ccc(Cl)cc2)CC1=O (stereo not shown) [Compound 33a, N-benzyl-4-(4-chlorophenyl)-N,1-dimethyl-2-oxo-3,4-dihydropyridine-5-carboxamide]	39000 nM	37%	1100 nM	16%
COCCN1C(=O)CC(c2ccc(Cl)cc2)C(C(=O)OCc2ccccc2C)=C1C (stereo not shown) [Example 98, o-tolylmethyl 4-(4-chlorophenyl)-1-(2-methoxyethyl)-6-methyl-2-oxo-3,4-dihydropyridine-5-carboxylate]	300 nM		500 nM	
COc1ccc(COC(=O)C2=C(C)N(C)C(=O)CC2c2ccc(Cl)cc2)cc1OC (stereo not shown) [Example 83, (3,4-dimethoxyphenyl)methyl 4-(4-chlorophenyl)-1,6-dimethyl-2-oxo-3,4-dihydropyridine-5-carboxylate]	1200 nM	69%	400 nM	88%
COCCC1=C(C(=O)OCc2ccccc2)C(c2ccc(Cl)cc2)CC(=O)N1 (stereo not shown) [Compound 22, benzyl 4-(4-chlorophenyl)-6-(2-methoxyethyl)-2-oxo-3,4-dihydro-1H-pyridine-5-carboxylate]	3510 nM	36%	4300 nM	44%
COCCN1C(=O)CC(c2ccc(Cl)cc2)C(C(=O)OCc2c(C)cc(C)cc2C)=C1C (stereo not shown) [Example 101, (2,4,6-trimethylphenyl)methyl 4-(4-chlorophenyl)-1-(2-methoxyethyl)-6-methyl-2-oxo-3,4-dihydropyridine-5-carboxylate]	200 nM	75%	200 nM	84%
COCCN1C(=O)CC(c2ccc(Cl)cc2)C(C(=O)OCc2ccc3ccccc3c2)=C1C (stereo not shown) [Example 106, 2-naphthylmethyl 4-(4-chlorophenyl)-1-(2-methoxyethyl)-6-methyl-2-oxo-3,4-dihydropyridine-5-carboxylate]	400 nM		200 nM	

Continued, values first:

EC50 (hTGR5)	hTGR5 % trans (hTGR5)	EC50 (mTGR5)	mTGR5 % trans (mTGR5)	SMILES
200 nM	86%	200 nM	100%	COCCN1C(=O)CC(c2ccc(C#N)cc2)C(C(=O)OCc2ccccc2OC)=C1C (stereo not shown) [Example 125, (2-methoxyphenyl)methyl 4-(4-cyanophenyl)-1-(2-methoxyethyl)-6-methyl-2-oxo-3,4-dihydropyridine-5-carboxylate]
1400 nM	76%	1600 nM	82%	COCCN1C(=O)CC(c2ccc(Cl)cc2)C(C(=O)OCc2ccc(OCCCN(C)C)cc2)=C1C (stereo not shown) [Example 116, [4-[3-(dimethylamino)propoxy]phenyl]methyl 4-(4-chlorophenyl)-1-(2-methoxyethyl)-6-methyl-2-oxo-3,4-dihydropyridine-5-carboxylate]
190 nM	77%	450 nM	112%	COCCOc1ccc(COC(=O)C2=C(C)N(C[C@@H]3CCCO3)C(=O)C[C@H]2c2ccc(Cl)cc2)cc1 (racemic) [Example 147, [4-(2-methoxyethoxy)phenyl]methyl (4S)-4-(4-chlorophenyl)-6-methyl-2-oxo-1-[[(2S)-tetrahydrofuran-2-yl]methyl]-3,4-dihydropyridine-5-carboxylate and [4-(2-methoxyethoxy)phenyl]methyl (4R)-4-(4-chlorophenyl)-6-methyl-2-oxo-1-[[(2R)-tetrahydrofuran-2-yl]methyl]-3,4-dihydropyridine-5-carboxylate]
65 nM	106%	26 nM	120%	CC1=C(C(=O)OCc2ccc(OCCCS(=O)(=O)O)cc2)[C@H](c2ccc(Cl)cc2)CC(=O)N1C[C@H]1CCCO1.N [Example 168, Ammonium,3-[4-[[(4S)-4-(4-chlorophenyl)-6-methyl-2-oxo-1-[[(2R)-tetrahydrofuran-2-yl]methyl]-3,4-dihydropyridine-5-carbonyl]oxymethyl]phenoxy]propane-1-sulfonate]
20 nM	91%	70 nM	89%	COc1ccccc1COC(=O)C1=C(C)N(C[C@H]2CCCO2)C(=O)C[C@H]1c1ccc(Cl)c(Cl)c1 (racemic) [Example 149, (2-methoxyphenyl)methyl (4S)-4-(3,4-dichlorophenyl)-6-methyl-2-oxo-1-[[(2R)-tetrahydrofuran-2-yl]methyl]-3,4-dihydropyridine-5-carboxylate and (2-methoxyphenyl)methyl (4R)-4-(3,4-dichlorophenyl)-6-methyl-2-oxo-1-[[(2S)-tetrahydrofuran-2-yl]methyl]-3,4-dihydropyridine-5-carboxylate]
100 nM	89%	100 nM	109%	COCCN1C(=O)CC(c2ccc(Cl)c(Cl)c2)C(C(=O)OCc2ccccc2OC)=C1C (stereo not shown) [Example 127, (2-methoxyphenyl)methyl 4-(3,4-dichlorophenyl)-1-(2-methoxyethyl)-6-methyl-2-oxo-3,4-dihydropyridine-5-carboxylate]
100 nM	85%	100 nM	83%	COCCOc1ccc(COC(=O)C2=C(C)N(CCOC)C(=O)CC2c2ccc(Cl)cc2)cc1 (stereo not shown) [Example 119, [4-(2-methoxyethoxy)phenyl]methyl 4-(4-chlorophenyl)-1-(2-methoxyethyl)-6-methyl-2-oxo-3,4-dihydropyridine-5-carboxylate]
